# Measurements from patent publication US5306808A, “Peptide derivatives having vasodilating activity” (Takeda Chemical Industries, Ltd., priority 1991, dated 1994).
# Where a SMILES comes first, the peptide text is derived from it. Bridges are numbered along the chain shown (N, C = ends).
# Tests used:
# porcine coronary artery = assay type: cell-based; conditions: for Constrictor activity (Relative potency): ET-1 = 100; for Maximum Constriction (% 60 mM KCl): normalized to constriction response to 60 mM KCl
# Experimental: Each of helical strips 2 mm×15 mm prepared from the coronary right ramus circumflexus from which the adventitial connective tissues and the endothelial cells were removed was set to each of 4 ml organ baths. Its tension was detected by a force displacement transducer UL-10GR (Minebea), and recorded by a polygraph (NEC Sanei). The organ baths were maintained at 37° C., and filled with a Krebs-Henseleit solution (composition:118 mM NaCl, 4.7 mM KCl, 2.5 mM CaCl2, 1.2 mM KH2 PO4, 25.0 mM NaHCO3, 1.2 mM MgSO4, 10.0 mM glucose) gassed with 95% O2 and 5% CO2.
# A tension of 1.25 to 1.5 g was applied to each of the strips, followed by equilibration for 1.5 hours. 60 mM KCl was repeatedly applied thereto at intervals of 30 minutes until the constriction response became constant. After additional equilibration for 1.5 hours, a sample for assay was given. The constriction of the strips was normalized by the constriction response of the individual strips to 60 mM KCl and statistically processed.
# (2) As to the antagonist property or the agonist property of the peptide derivatives of present invention to endothelin, the affinity for an endothelin receptor and the constrictor activity to porcine coronary smooth muscles (according to the method described in (1) described above) were assayed. The affinity for the receptor was assayed by the following method.
# endothelin receptor = assay: Assay of affinity for receptor (I125-ET-1 binding to porcine myocardial membrane fraction); conditions: ET-1 = 100
# Experimental: A membrane fraction prepared from the porcine heart was diluted to 0.15 mg/ml by using a buffer solution [PBS (pH 7.4) containing 0.5 mM CaCl2, 1.0 mM MgCl2, 0.02% NaN3, 0.1% BSA (fraction V, Sigma), 0.1 mM PMSF and 0.1 μg/ml pepstatin (binding buffer)] for assay, and 100 μl of the resulting suspension of the membrane fraction was poured into each assay tube to use for assay. To this suspension of the membrane fraction were added 2 μl of an endothelin-1 solution labeled with 5 μM radioactive iodine. Further, 3 μl of a test peptide solution was added thereto, followed by maintenance at a temperature of 25° C. for 1 hour. Then, the resulting suspension was diluted with 900 μl of the buffer solution for assay cooled with ice, and thereafter separated into a supernatant and a precipitate by centrifugation at 12,000×g for 10 minutes. Cell membranes and an endothelin receptor embedded therein were contained in the precipitate, and radioactive iodine-labeled endothelin combined with the receptor was also recovered in the precipitate. Accordingly, the amount of radioactive iodine-labeled endothelin combined with the endothelin receptor was determined by measuring the amount of radioactive iodine contained in the precipitate with a gamma-ray counter. Compounds in which the affinity for the endothelin receptor is high and the maximum constriction is not high are antagonists. Contrary to this, compounds in which the affinity for the endothelin receptor is high and the maximum constriction is high are agonists.
Compound,"EC50 (porcine coronary artery; read-out: EC50 (% KCL), concentration which induces 50% of the constriction due to 60 mM KCl)",Constrictor activity (Relative potency) (porcine coronary artery),Maximum Constriction (% 60 mM KCl) (porcine coronary artery),Receptor binding activity (Relative potency) (endothelin receptor)
"CC[C@H](C)[C@H](NC(=O)[C@H](CC(=O)O)NC(=O)[C@H](CC(C)C)NC(=O)[C@H](Cc1c[nH]cn1)NC(=O)[C@@H]1CSSC[C@H](N)C(=O)N[C@@H](CO)C(=O)N[C@H]2CSSC[C@H](NC(=O)[C@H](CCC(=O)O)NC(=O)[C@H](CCCCN)NC(=O)[C@H](CC(=O)O)NC(=O)[C@H](CCSC)NC(=O)[C@H](CC(C)C)NC(=O)[C@H](CO)NC(=O)[C@H](CO)NC2=O)C(=O)N[C@@H](C(C)C)C(=O)N[C@@H](Cc2ccc(O)cc2)C(=O)N[C@@H](Cc2ccccc2)C(=O)N1)C(=O)N[C@H](C(=O)N[C@@H](Cc1c[nH]c2ccccc12)C(=O)O)[C@@H](C)CC [ET-1, endothelin-1, reference compound]",1.6 nM,–,–,–
"CC[C@H](C)[C@H](NC(=O)[C@H](CC(=O)O)NC(=O)[C@H](CC(C)C)NC(=O)[C@H](Cc1c[nH]cn1)NC(=O)[C@@H]1CSSC[C@H](N)C(=O)N[C@@H](CO)C(=O)N[C@@H](Cc2c[nH]c3ccccc23)C(=O)N[C@@H](CO)C(=O)N[C@@H](CO)C(=O)N[C@@H](CC(C)C)C(=O)N[C@@H](CCSC)C(=O)N[C@@H](CC(=O)O)C(=O)N[C@@H](CCCCN)C(=O)N[C@@H](CCC(=O)O)C(=O)N[C@@H](C)C(=O)N[C@@H](C(C)C)C(=O)N[C@@H](Cc2ccc(O)cc2)C(=O)N[C@@H](Cc2ccccc2)C(=O)N1)C(=O)N[C@H](C(=O)N[C@@H](Cc1c[nH]c2ccccc12)C(=O)O)[C@@H](C)CC [Example 13, [Trp^3, Ala^11]-ET-1] (H-CSWSSLMDKEAVYFCHLDIIW-OH; disulfide 1-15)",–,< 0.1,6 % 60 mM KCl,2.5
"CC[C@H](C)[C@H](NC(=O)[C@H](C)NC(=O)[C@H](CC(C)C)NC(=O)[C@H](Cc1c[nH]cn1)NC(=O)[C@@H]1CSSC[C@H](N)C(=O)N[C@@H](CO)C(=O)N[C@@H](C)C(=O)N[C@@H](CO)C(=O)N[C@@H](CO)C(=O)N[C@@H](CC(C)C)C(=O)N[C@@H](CCSC)C(=O)N[C@@H](CC(=O)O)C(=O)N[C@@H](CCCCN)C(=O)N[C@@H](CCC(=O)O)C(=O)N[C@@H](C)C(=O)N[C@@H](C(C)C)C(=O)N[C@@H](Cc2ccc(O)cc2)C(=O)N[C@@H](Cc2ccccc2)C(=O)N1)C(=O)N[C@H](C(=O)N[C@@H](Cc1c[nH]c2ccccc12)C(=O)O)[C@@H](C)CC [Example 21, [Ala^3,11,18]-ET-1] (H-CSASSLMDKEAVYFCHLAIIW-OH; disulfide 1-15)",–,< 0.1,6 % 60 mM KCl,1.59
"CC[C@H](C)[C@H](NC(=O)[C@H](CC(C)C)NC(=O)[C@H](CC(C)C)NC(=O)[C@H](Cc1c[nH]cn1)NC(=O)[C@@H]1CSSC[C@H](N)C(=O)N[C@@H](CO)C(=O)N[C@@H](C)C(=O)N[C@@H](CO)C(=O)N[C@@H](CO)C(=O)N[C@@H](CC(C)C)C(=O)N[C@@H](CCSC)C(=O)N[C@@H](CC(=O)O)C(=O)N[C@@H](CCCCN)C(=O)N[C@@H](CCC(=O)O)C(=O)N[C@@H](C)C(=O)N[C@@H](C(C)C)C(=O)N[C@@H](Cc2ccc(O)cc2)C(=O)N[C@@H](Cc2ccccc2)C(=O)N1)C(=O)N[C@H](C(=O)N[C@@H](Cc1c[nH]c2ccccc12)C(=O)O)[C@@H](C)CC [Example 22, [Ala^3,11, Leu^18]-ET-1] (H-CSASSLMDKEAVYFCHLLIIW-OH; disulfide 1-15)",–,< 0.1,3 % 60 mM KCl,1.27
